{
  "source": "paper PMC6150365",
  "about": "“Simultaneous Determination of Seven Components in Rat Plasma by the UPLC-MS/MS Method and Application of Pharmacokinetic Studies to SimiaoYong’an Decoction” (Molecules : A Journal of Synthetic Chemistry and Natural …, 2017)",
  "assay": "Pharmacokinetic study in rats after oral administration of SYD extract and its single and combined TCM extracts (UPLC-MS/MS of plasma)",
  "settings": "male, Sprague-Dawley, rat, plasma, po, n = 6; for AUC(0-inf) / Cmax / MRT last / MRT inf / Tmax / AUC(0-t): rat plasma; for MRT last: MRT(0–t); for MRT inf: MRT(0–∞); for half-life: t1/2, rat plasma",
  "key": {"[1]": {"settings": "2.14 g·kg^−1 (extract), oral LJ + GU extract"}, "[2]": {"settings": "2.15 g/kg, oral LJ extract 2.15 g/kg"}, "[3]": {"settings": "3.29 g·kg^−1 (extract), oral LJ + AS extract"}, "[4]": {"settings": "3.29 g·kg^−1 extract, oral LJ + AS extract"}, "[5]": {"settings": "4.01 g·kg^−1 (extract), oral LJ + AS + GU extract"}, "[6]": {"settings": "4.5 g·kg^−1 (extract), oral LJ + SN extract"}, "[7]": {"settings": "4.5 g·kg^−1 extract, oral LJ + SN extract"}, "[8]": {"settings": "4.73 g/kg, oral LJ + SN + GU extract 4.73 g/kg"}, "[9]": {"settings": "5.43 g/kg, oral LJ + SN + AS extract 5.43 g/kg"}, "[10]": {"settings": "8.25 g/kg, oral SYD extract 8.25 g/kg"}},
  "method": "Pieces of LJ, SN, AS and GU were weighed according to the proportion of 3:3:2:1 with appropriate amounts. The mixed pieces were crushed and decocted two times (60 min each time) with water (1:10 w/v) after being soaked for 60 min. The decoctions were then combined and condensed to the concentration of 0.5 g/mL, after which 95% ethanol was slowly added to the concentrate until a final ethanol concentration of 70% was reached. The SYD solution was set at room temperature overnight and then was filtered. The solvent was recovered, and the residue was dried under reduced pressure. A certain amount of the water extract of SYD was weighed and then dissolved with purified water for intragastric (oral) administration solution. The single herbs and different combination groups such as LJ, SN, AS, GU, LJ + SN, LJ + AS, LJ + GU, SN + AS, SN + GU, AS + GU, LJ + SN + AS, LJ + SN + GU, LJ + AS + GU and SN + AS + GU were prepared according to the procedure of SYD.\nMale Sprague-Dawley (SD) rats (body weight 250 ± 10 g) were supplied by the SPF (Beijing) Biotechnology Co., Ltd. (Certificate No.: SCXK 2016-0002, Beijing, China). The animals were maintained in controlled conditions (temperature 20–25 °C, relative humidity 55–60% and 12-h light/12-h dark cycle) with free access to standard laboratory food and water for seven days of acclimation and then fasted for 12 h before each experiment but allowed to drink freely during this time.\nNinety male SD rats were randomly separated into 15 groups and administered a dosage of extract via gastric gavage once per day; detailed information about the oral daily dose of SYD extract and the corresponding single and combined TCMs (LJ, SN, AS, GU, LJ + SN, LJ + AS, LJ + GU, SN + AS, SN + GU, AS + GU, LJ + SN + AS, LJ + SN + GU, LJ + AS + GU, SN + AS + GU and SYD) is listed in Table 4.\nEach plasma sample (200 μL) with 50 μL IS solution added was spiked into 100 μL 1% formic acid distilled water solution and then vortexed for 1 min. Protein was precipitated by adding 600 μL of methanol to the mixture. After being vortexed and sonicated, the samples were centrifuged at 25,000 r/min, 4 °C for 10 min. The supernatant of each sample was transferred to a new 2-mL centrifuge tube and evaporated to dryness by N2 at 40 °C. Finally, the residue was dissolved in 100 μL methanol–water (1:1, v/v), followed by centrifugation at 30,000 r/min, 4 °C for 10 min, and 10-μL supernatant aliquots were injected into the UPLC-MS/MS system for analysis.\nThe SYD was decomposed into 15 groups of compatibility combinations (LJ, SN, AS, GU, LJ + SN, LJ + AS, LJ + GU, SN + AS, SN + GU, AS + GU, LJ + SN + AS, LJ + SN + GU, LJ + AS + GU, SN + AS + GU and SYD). The 15 combinations were weighed according to the proportion of 3:3:2:1 with appropriate amounts and prepared by the method described in “Section 3.2”. Six male SD rats (body weight 250 ± 10 g) of each compatibility group were used in the pharmacokinetic study. After 12-h fast, rats of the different groups were orally administered the respective extract dissolved in saline (Table 4). Venous blood (0.45 mL) was obtained from the orbit vein and collected in heparin-pretreated polypropylene centrifuge tubes at 0.083 h, 0.17 h, 0.25 h, 0.50 h, 0.75 h, 1.0 h, 1.5 h, 2.0 h, 3.0 h, 4.0 h, 6.0 h, 8.0, 12 h and 24 h post-dose. The plasma was separated by centrifugation at 8000 r/min for 10 min and then stored at −20 °C until analysis. The amount of each analyte in the plasma was estimated by UPLC-MS/MS analysis as described in Section 3.5.\nNon-compartmental methods using Phoenix WinNonlin 7.0 software provided by the Beijing University of Chinese Medicine were used to analyze plasma concentration versus time profiles and to estimate the following pharmacokinetic parameters: terminal elimination half-lives (t1/2), area under the plasma concentration versus time curve from zero to last sampling time (AUC), and the mean residence time (MRT).",
  "data": [
    {"smiles": "COC(=O)C1=CO[C@@H](O[C@@H]2O[C@H](CO)[C@@H](O)[C@H](O)[C@H]2O)[C@@H]2[C@@H](C)[C@@H](O)C[C@H]12", "note": "[Loganin, loganin]", "values": [
      {"measurement": "AUC(0-inf)", "setting": "[1]", "value": "5.51 ± 2", "unit": "µg·h/mL"},
      {"measurement": "Cmax", "setting": "[1]", "value": "0.69 ± 0.44", "unit": "µg/mL"},
      {"measurement": "MRT last", "setting": "[1]", "value": "8.17 ± 0.62", "unit": "h"},
      {"measurement": "MRT inf", "setting": "[1]", "value": "88.5 ± 42.1", "unit": "h"},
      {"measurement": "Tmax", "setting": "[1]", "value": "1.25 ± 0.59", "unit": "h"},
      {"measurement": "half-life", "setting": "[1]", "value": "8.07 ± 3.65", "unit": "h"},
      {"measurement": "AUC(0-t)", "setting": "2.14 g·kg^−1 extract, oral LJ + GU extract", "value": "1.6 ± 0.07", "unit": "µg·h/mL"},
      {"measurement": "AUC(0-t)", "setting": "[2]", "value": "1.52 ± 0.11", "unit": "µg·h/mL"},
      {"measurement": "AUC(0-inf)", "setting": "[2]", "value": "1.67 ± 0.34", "unit": "µg·h/mL"},
      {"measurement": "Cmax", "setting": "[2]", "value": "1.14 ± 0.52", "unit": "µg/mL"},
      {"measurement": "MRT last", "setting": "[2]", "value": "3.65 ± 1.03", "unit": "h"},
      {"measurement": "MRT inf", "setting": "[2]", "value": "6.74 ± 6", "unit": "h"},
      {"measurement": "Tmax", "setting": "[2]", "value": "1.25 ± 0.59", "unit": "h"},
      {"measurement": "half-life", "setting": "[2]", "value": "6.71 ± 4.19", "unit": "h"},
      {"measurement": "Cmax", "setting": "[3]", "value": "0.66 ± 0.35", "unit": "µg/mL"},
      {"measurement": "MRT last", "setting": "[3]", "value": "7.93 ± 1.33", "unit": "h"},
      {"measurement": "MRT inf", "setting": "[3]", "value": "80.9 ± 41.5", "unit": "h"},
      {"measurement": "Tmax", "setting": "[3]", "value": "1.33 ± 0.52", "unit": "h"},
      {"measurement": "half-life", "setting": "[3]", "value": "7.89 ± 2.42", "unit": "h"},
      {"measurement": "AUC(0-t)", "setting": "[4]", "value": "1.72 ± 0.31", "unit": "µg·h/mL"},
      {"measurement": "AUC(0-inf)", "setting": "[4]", "value": "5.4 ± 1.94", "unit": "µg·h/mL"},
      {"measurement": "AUC(0-t)", "setting": "[5]", "value": "1.66 ± 0.12", "unit": "µg·h/mL"},
      {"measurement": "AUC(0-inf)", "setting": "[5]", "value": "5.35 ± 1.94", "unit": "µg·h/mL"},
      {"measurement": "Cmax", "setting": "[5]", "value": "0.54 ± 0.17", "unit": "µg/mL"},
      {"measurement": "MRT last", "setting": "[5]", "value": "8.06 ± 0.78", "unit": "h"},
      {"measurement": "MRT inf", "setting": "[5]", "value": "81.9 ± 41.3", "unit": "h"},
      {"measurement": "Tmax", "setting": "[5]", "value": "1.5 ± 0.45", "unit": "h"},
      {"measurement": "half-life", "setting": "[5]", "value": "7.91 ± 2.17", "unit": "h"},
      {"measurement": "MRT last", "setting": "[6]", "value": "7.79 ± 1.38", "unit": "h"},
      {"measurement": "MRT inf", "setting": "[6]", "value": "80 ± 40.2", "unit": "h"},
      {"measurement": "Tmax", "setting": "[6]", "value": "1.54 ± 0.56", "unit": "h"},
      {"measurement": "half-life", "setting": "[6]", "value": "9.39 ± 2.6", "unit": "h"},
      {"measurement": "AUC(0-t)", "setting": "[7]", "value": "1.79 ± 0.44", "unit": "µg·h/mL"},
      {"measurement": "AUC(0-inf)", "setting": "[7]", "value": "5.47 ± 2.06", "unit": "µg·h/mL"},
      {"measurement": "Cmax", "setting": "[7]", "value": "0.68 ± 0.1", "unit": "µg/mL"},
      {"measurement": "AUC(0-t)", "setting": "[8]", "value": "1.84 ± 0.45", "unit": "µg·h/mL"},
      {"measurement": "AUC(0-inf)", "setting": "[8]", "value": "5.51 ± 2.02", "unit": "µg·h/mL"},
      {"measurement": "Cmax", "setting": "[8]", "value": "0.72 ± 0.45", "unit": "µg/mL"},
      {"measurement": "MRT last", "setting": "[8]", "value": "7.72 ± 1.48", "unit": "h"},
      {"measurement": "MRT inf", "setting": "[8]", "value": "79.3 ± 40.8", "unit": "h"},
      {"measurement": "Tmax", "setting": "[8]", "value": "1.5 ± 0.45", "unit": "h"},
      {"measurement": "half-life", "setting": "[8]", "value": "6.83 ± 2.11", "unit": "h"},
      {"measurement": "AUC(0-t)", "setting": "[9]", "value": "1.16 ± 0.78", "unit": "µg·h/mL"},
      {"measurement": "AUC(0-inf)", "setting": "[9]", "value": "1.18 ± 0.77", "unit": "µg·h/mL"},
      {"measurement": "Cmax", "setting": "[9]", "value": "0.66 ± 0.483", "unit": "µg/mL"},
      {"measurement": "MRT last", "setting": "[9]", "value": "2.5 ± 0.7", "unit": "h"},
      {"measurement": "MRT inf", "setting": "[9]", "value": "4.07 ± 3.93", "unit": "h"},
      {"measurement": "Tmax", "setting": "[9]", "value": "1.5 ± 0.45", "unit": "h"},
      {"measurement": "half-life", "setting": "[9]", "value": "6.25 ± 4.29", "unit": "h"},
      {"measurement": "AUC(0-t)", "setting": "[10]", "value": "1.98 ± 1.38", "unit": "µg·h/mL"},
      {"measurement": "AUC(0-inf)", "setting": "[10]", "value": "2.17 ± 1.4", "unit": "µg·h/mL"},
      {"measurement": "Cmax", "setting": "[10]", "value": "0.77 ± 0.46", "unit": "µg/mL"},
      {"measurement": "MRT last", "setting": "[10]", "value": "4.71 ± 1.34", "unit": "h"},
      {"measurement": "MRT inf", "setting": "[10]", "value": "8.87 ± 8.1", "unit": "h"},
      {"measurement": "half-life", "setting": "[10]", "value": "7.45 ± 3.39", "unit": "h"}
    ]}
  ]
}
